“Also recorded” adds a separate entry of the source. No end group written: not given here.

Test systems include Alternaria longipes; Aspergillus flavus; Sclerotinia sclerotiorum; Fusarium graminearum; plant pathogenic fungi; Fusarium moniliforme; Sclerotinia trifoliorum.
What all share (format): cell-based

For “RSGRGECRRQCLRRHEGQPWETQECMRRCRRRGG (cysteine pairing not given here) [CMIII]”, the “effect on A. longipes” value in the experiment with Alternaria longipes (at 3 μM, yet another study) was “not affected”. Besides, in the experiment with Alternaria longipes (other studies, most sensitive of the fungi), the “concentration showing noticeable inhibition of Alternaria longipes” value turned out to be 1.9 µM. In addition, the “inhibition of Aspergillus flavus” value in the experiment on Aspergillus flavus is reported as “slightly inhibited; also recorded: slight inhibition”. In addition, in the experiment with Sclerotinia sclerotiorum, the “concentrations at which inhibition of S. sclerotiorum was not observed” value is on record as “below 30.4 micromolar”, the “inhibition of Sclerotinia isolates (S. sclerotiorum)” value was “inhibited strongly” and the “inhibition of Sclerotinia sclerotiorum” value is on record as “inhibitory activity”. In the experiment with Fusarium graminearum (at a concentration of 112 μg/mL), the “inhibition of Fusarium graminearum” value is reported as “inhibitory activity”. Besides, the “concentration down to which Fusarium graminearum was noticeably inhibited” value with Fusarium graminearum (other studies) was 3.8 µM. In addition, in the experiment with plant pathogenic fungi, the “CMIII activity in the presence of plant cell extracts” value is “reduced substantially”. In the experiment with Fusarium moniliforme, the “concentration down to which Fusarium moniliforme was noticeably inhibited” value was 3.8 µM and the “inhibition of Fusarium moniliforme” value is reported as “slightly inhibited; also recorded: not completely inhibited”. Moreover, in the experiment with Sclerotinia trifoliorum, the “concentrations at which inhibition of S. trifoliorum was not observed” value was “below 15.2 micromolar”, the “inhibition of Sclerotinia isolates (S. trifoliorum)” value is given as “inhibited strongly” and the “inhibition of Sclerotinia trifoliorum” value was “inhibitory activity”.

The values above are taken from patent US5905187A (priority 1997, dated 1999).
